Data taken from article PMC10469817, “A novel UHPLC‒MS/MS method for quantitative analysis of zanubrutinib in rat plasma: application to an in vivo interaction study between zanubrutinib and triazole antifungal” (BMC Chemistry, 2023).
Where two headings read alike, the source gives them in different places. Blank lines part the entries; values can stand above or below the compound they belong to.

Assays:
CYP3A4 [1] = tested on: CYP3A4; set-up: method as in PMID 16205037, PMID 30477963; details: cited from earlier work
[2] = DDI study: pharmacokinetics of zanubrutinib in rats alone or with fluconazole / isavuconazole; assay type: in vivo, Sprague–Dawley (SD) rats; details: for AUC(0-inf) / AUC(0-t) / Cmax / Tmax / half-life / CL/F / MRT last / MRT inf / Vd/F: rat, plasma, po, zanubrutinib 30 mg/kg gavage, n = 6, mean ± SD; for CL/F: read-out: CLz/F (converted); for MRT last: read-out: MRT(0−t); for MRT inf: read-out: MRT(0−∞); for Vd/F: read-out: Vz/F; for time to peak: in h (unit assumed); for peak plasma concentration: in ng/mL; for area under the curve: in µg·h/L
Description: The separation procedures were processed using a Shim-pack velox C18 column (2.1 × 50 mm, 2.7 μm) at 40 degrees Celsius. The mobile phases were 0.1% formic acid-water and methanol. The gradient elution mode (each injection = 3 min) was applied as follows: the first 0-0.5 min was maintained at 10% methanol, followed by linearly increasing to 80% methanol (0.5–0.8 min) and keeping 80% methanol for 0.8–1.5 min. […] At the stage of the analysis process, the sample injection volume and flow rate were set as 2 µL and 0.4 mL/min, respectively.
Triple quadrupole mass spectrometry (Shimadzu Corp., Tokyo, Japan) was utilized for sample detection. The parameters for this procedure were set as follows: the detector voltage, heating block temperature, flow of atomizing gas, and drying gas were set as 4.5 kV, 400 °C, 3 L/min and 5 L/min, respectively. Multiple reaction monitoring (MRM) mode was performed to detect the precursor and product ions of the IS and analyte. The first and second signal strength product ions were applied to quantitation and qualification, respectively, to ensure the specificity of the detection. In addition, the retention times of the IS and analyte were also considered to further improve the detection specificity.
Eighteen SD rats were randomly split into three groups (Groups A-C). […] The same dose (0.5% CMC-Na) was administered to Group A (control group). After half an hour, each rat was treated with 30 mg/kg zanubrutinib. Thereafter, rat blood samples (0.3 mL) from the caudal vein at a series of time points (0.083, 0.5, 1, 2, 3, 4, 5, 6, 8, and 12 h) were collected in heparin tubes. The blood samples were centrifuged at 13,000 × g for 10 min at 4 °C, followed by separation of plasma and storage at -80 °C.
Prior to the experiment, the − 80 °C stored rat plasma samples were placed at room temperature for thawing. At the protein precipitation stage, 40 µL IS, 200 µL acetonitrile, and 100 µL plasma were collectively added to a 1.5 mL centrifuge tube, vortexed to mix thoroughly, and centrifuged at 12,000 × g for 10 min. Afterwards, 100 µL supernatant was transferred to a centrifuge tube and gently mixed with 100 µL ultrapure water for UHPLC–MS/MS analysis.

BTK = tested on: BTK; set-up: method as in PMID 31340982; details: peripheral blood mononuclear cells (PBMCs) and peripheral lymph nodes in patients with B-cell lymphoma; cited from earlier work
[3] = Stability of zanubrutinib in rat plasma under different storage conditions; assay type: in vitro ADME; details: for Stability in rat plasma, RE(%): n = 6
Description: Under a series of storage conditions, each concentration of rat plasma QC samples (2, 40 and 800 ng/mL) was evaluated in 6 replicates to explore the stability of the method. This experiment determines the stabilities of the QC samples during analyses and different storage conditions. […] The testing results with RSD% (< 15%) and RE% (± 15%) were considered stable.

[4] = set-up: method as in PMID 31875923; details: healthy volunteers, combined with itraconazole (CYP3A4 inhibitor); cited from earlier work
CYP3A4 [5] = tested on: CYP3A4; set-up: method as in PMID 34252374; details: in vitro experiments; to phenoxy phenyl hydroxylation metabolites; cited from earlier work
[6] = set-up: method as in PMID 31340982; details: cited from earlier work
[7] = tested on: IL-2-induced kinase (ITK); set-up: method as in PMID 31171645; details: compared to ibrutinib; cited from earlier work
[8] = single administration of 320 mg
[9] = Sprague-Dawley, 30 mg/kg, rats, Group A: the control group (0.5% CMC-Na)
[10] = Sprague-Dawley, 30 mg/kg, rats, Group B: 20 mg/kg isavuconazole
[11] = Sprague-Dawley, 30 mg/kg, rats, Group C: 20 mg/kg fluconazole
[12] = rats, zanubrutinib (30 mg/kg) alone
[13] = rats, zanubrutinib (30 mg/kg) coadministered with fluconazole (20 mg/kg)
[14] = rats, zanubrutinib (30 mg/kg) coadministered with isavuconazole (20 mg/kg)

Structure (SMILES): OC(Cn1cncn1)(Cn1cncn1)c1ccc(F)cc1F [fluconazole]
CYP3A4 inhibition (CYP3A4 [1]): CYP3A4 enzyme inhibitors

inhibitory effect on the metabolism of zanubrutinib ([2]; rats, 20 mg/kg antifungal by gavage half an hour before 30 mg/kg zanubrutinib): obvious inhibitory effect
Structure (SMILES): C[C@@H](c1nc(-c2ccc(C#N)cc2)cs1)[C@](O)(Cn1cncn1)c1cc(F)ccc1F [isavuconazole]
CYP3A4 inhibition (CYP3A4 [1]): CYP3A4 enzyme inhibitors

Stability in rat plasma, RE(%) ([3]; 4 °C (24 h), 2 ng/mL): 1.3%
Stability in rat plasma, RE(%) ([3]; 4 °C (24 h), 40 ng/mL): 1.4%
Stability in rat plasma, RE(%) ([3]; 4 °C (24 h), 800 ng/mL): 1.0%
Stability in rat plasma, RE(%) ([3]; -80 °C (long-term), 2 ng/mL): 2.5%
Stability in rat plasma, RE(%) ([3]; -80 °C (long-term), 40 ng/mL): 1.5%
Stability in rat plasma, RE(%) ([3]; -80 °C (long-term), 800 ng/mL): 4.0%
Stability in rat plasma, RE(%) ([3]; Room temperature (4 h), 2 ng/mL): -0.2%
Stability in rat plasma, RE(%) ([3]; Room temperature (4 h), 40 ng/mL): -1.4%
Stability in rat plasma, RE(%) ([3]; Room temperature (4 h), 800 ng/mL): -2.3%
Stability in rat plasma, RE(%) ([3]; Three freeze‒thaw, 2 ng/mL): -1.8%
Stability in rat plasma, RE(%) ([3]; Three freeze‒thaw, 40 ng/mL): 2.6%
Stability in rat plasma, RE(%) ([3]; Three freeze‒thaw, 800 ng/mL): -0.4%
stability in plasma under the assessed storage conditions ([3]; room temperature, 4 degrees Celsius refrigeration, freeze thawing, cryopreservation for long-term): stable
concentration at 1 h ([2]; Sprague-Dawley, 30 mg/kg, a rat plasma sample obtained 1 h after oral administration of zanubrutinib): 230 ng/mL
AUC(0-inf) [2, 9]: 1090 ± 44.2 ng·h/mL
AUC(0-t) [2, 9]: 1080 ± 43.8 ng·h/mL
Cmax [2, 9]: 332 ± 52.8 ng/mL
Tmax [2, 9]: 1.83 ± 0.41 h
half-life [2, 9]: 1.34 ± 0.11 h
CL/F [2, 9]: 461 mL/min/kg
MRT last [2, 9]: 2.71 ± 0.1 h
MRT inf [2, 9]: 2.76 ± 0.09 h
Vd/F [2, 9]: 53.2 ± 3.64 L/kg
AUC(0-inf) [2, 10]: 1270 ± 78 ng·h/mL
AUC(0-t) [2, 10]: 1270 ng·h/mL
Cmax [2, 10]: 396 ± 37.2 ng/mL
Tmax [2, 10]: 2 h
half-life [2, 10]: 1.42 ± 0.56 h
CL/F [2, 10]: 394 mL/min/kg
MRT last [2, 10]: 2.76 ± 0.07 h
MRT inf [2, 10]: 2.82 ± 0.09 h
Vd/F [2, 10]: 49 ± 21.1 L/kg
AUC(0-inf) [2, 11]: 1730 ± 218 ng·h/mL
AUC(0-t) [2, 11]: 1720 ± 219 ng·h/mL
Cmax [2, 11]: 495 ± 131 ng/mL
Tmax [2, 11]: 2.17 ± 0.41 h
half-life [2, 11]: 1.37 ± 0.16 h
CL/F [2, 11]: 293 mL/min/kg
MRT last [2, 11]: 2.95 ± 0.14 h
MRT inf [2, 11]: 3 ± 0.14 h
Vd/F [2, 11]: 34.8 ± 6.57 L/kg
time to peak [2, 12]: 1.83 ± 0.41
peak plasma concentration [2, 12]: 332.00 ± 52.79
area under the curve [2, 12]: 1081.67 ± 43.81
time to peak [2, 13]: 2.17 ± 0.41
peak plasma concentration [2, 13]: 494.51 ± 130.68
area under the curve [2, 13]: 1721.61 ± 219.36
time to peak [2, 14]: 2.00 ± 0.00
peak plasma concentration [2, 14]: 396.05 ± 37.19
area under the curve [2, 14]: 1267.55 ± 79.35
Structure (SMILES): C=CC(=O)N1CCC([C@@H]2CCNc3c(C(N)=O)c(-c4ccc(Oc5ccccc5)cc4)nn32)CC1 [zanubrutinib]
efficacy of BTK inhibition (BTK): ~100%
AUC increased to (combined with itraconazole) [4]: 143%
Cmax increased to (combined with itraconazole) [4]: 154%
enzyme primarily metabolizing zanubrutinib (CYP3A4 [5]): CYP3A4
time of peak concentration (Tmax) ([6]; patients with malignant lymphoma, oral administration): approximately 2 h
mean half-life (t1/2) [6, 8]: approximately 4 h
mean peak concentration (Cmax) [6, 8]: 658 ng/mL
times lower at inhibiting IL-2-induced kinase (ITK) than ibrutinib [7]: more than 20 times
